Reference: patent US20200368272A1, “COMPOSITION FOR AMELIORATING POST-CEREBRAL STROKE SEQUELA” (MiZ Company Limited, priority 2019, published 2020)

Legend:
[1] = tested on: sequelae of cerebellar hemorrhage (loss of motor control, language disorder) in a person
Description: A person was hospitalized after developing cerebellar hemorrhage about eight years ago, then was transferred to a rehabilitation hospital after discharge to receive rehabilitation, which they are continuing to this day.
The inhalation of molecular hydrogen was performed daily for the first 2 months, 1 to 1.5 hours in the morning and 1 to 1.5 hours in the evening, then daily for 1 month, 2 to 3 hours in the morning and 2 to 3 hours in the evening, and finally daily for 1 month, 1 hour in the morning and 1 hour in the evening.

[2] = normal temperature and pressure; also printed as 1.6 mg/L; cited from earlier work

[HH] [molecular hydrogen]
articulation (language disorder) ([1]; approximately one month after inhaling): improved | time needed to walk a distance that previously took 20 minutes ([1]; approximately one month after inhaling, about 6 to 7.5 vol % H2): about 10 minutes | speech ([1]; approximately three months after inhalation): their speech became even more audible | motor and daily-life abilities ([1]; approximately two months after inhalation): able to talk while walking, their stride during rehabilitation lengthened | concentration at which hydrogen dissolves in water [2]: about 1.6 ppm
